# Measurements from patent US11896580B2, “Composition for improving milk quality and preparation method and application thereof” (CHINA AGRICULTURAL UNIVERSITY, priority 2020, dated 2024).
# Columns and labels:
# [1] = test system: Holstein cows having somatic cell counts of 300,000/mL to 1,000,000/mL; assay: Analysis of the DHI indicators of milk after subcutaneous injection of melatonin; assay type: in vivo
# Text: (1) According to the monthly DHI test reports from the dairy farm, Holstein cows having somatic cell counts of 300,000/mL to 1,000,000/mL are selected to be fed separately, and are ensured to have no significant difference in physical health. Season groups: spring n=90, summer n=74, autumn n=83, winter n=81 (number of cows). Age groups: 2-year-old n=23; 3-year-old n=80; 4-year-old n=66; 5-year-old n=56; 6-year-old n=27; 7-year-old n=19 (number of cows). Lactation period groups: peak-lactation n=15, mid-lactation n=38, end-lactation n=59 (number of cows) (initial-lactation: days 1-15 after calving; peak-lactation: days 16-100 after calving; mid-lactation: days 101-200 after calving; end-lactation: day 201 after calving to weaning).
# (2) The dairy cows having high somatic cell counts are injected with 2 mL melatonin solution every day for 4 consecutive days in each month. 15 days after the injection, fresh milk was collected and stored in 50 mL centrifuge tubes, and was tested for the changes in somatic cell counts. The cows were fed with total mixed ration, and were fed three times at 06:00, 12:00, and 18:00 respectively. Then, the cows entered the sports ground to move freely, drink water and rest.
# (3) The sampling bottles were numbered and added with 2-3 drops of potassium dichromate saturated solution, and were used for collecting the milk samples from the milk by the first milking of the cows. The milk sample for each cow was in a volume of 40 mL and placed in a centrifuge tube. After sampling, all the remaining milk was drained from the tubes which were cleaned to avoid contamination between the samples. The samples were stored at 2-7° C. The instrument for measuring the DHI indicators is Milkscan FT+&FC automatic milk compositional analyzer and somatic cell counter. The measurement was carried out in the National Laboratory for Preparation of Standard Materials of DHI.
# [2] = test system: cows; assay: Blood indicators of cows after injection of melatonin; conditions: in vivo
# [3] = 2-year-old cows, after injection
# [4] = 3-year-old cows, after injection
# [5] = 4-year-old cows, after injection
# [6] = 5-year-old cows, after injection
# [7] = 6-year-old cows, after injection
# [8] = 7-year-old cows, after injection
# [9] = peak-lactation, after injection
structure (smiles),measurement,setting,value
COc1ccc2[nH]cc(CCNC(C)=O)c2c1 [melatonin],dry matter contents,[1]; [3],13.87%±0.27
same,fat contents,[1]; [3],4.54%±0.26
same,lactose contents,[1]; [3],5.19%±0.03
same,milk production,[1]; [3],32.12 ± 1.63 kg/day
same,protein contents,[1]; [3],3.41%±0.09
same,somatic cell scores,[1]; [3],3.87±0.33
same,urea nitrogen contents,[1]; [3],13.90 ± 0.80 mg/dL
same,dry matter contents,[1]; [4],13.57%±0.13
same,fat contents,[1]; [4],4.36%±0.11
same,lactose contents,[1]; [4],5.03%±0.02
same,milk production,[1]; [4],32.11 ± 0.96 kg/day
same,protein contents,[1]; [4],3.44%±0.04
same,somatic cell scores,[1]; [4],4.31±0.18
same,urea nitrogen contents,[1]; [4],13.58 ± 0.46 mg/dL
same,dry matter contents,[1]; [5],14.18%±0.15
same,fat contents,[1]; [5],4.69%±0.13
same,lactose contents,[1]; [5],4.94%±0.03
same,milk production,[1]; [5],30.03 ± 1.22 kg/day
same,protein contents,[1]; [5],3.66%±0.06
same,somatic cell scores,[1]; [5],4.68±0.18
same,urea nitrogen contents,[1]; [5],13.32 ± 0.49 mg/dL
same,dry matter contents,[1]; [6],13.87%±0.18
same,fat contents,[1]; [6],4.62%±0.16
same,lactose contents,[1]; [6],4.86%±0.05
same,milk production,[1]; [6],33.56 ± 1.52 kg/day
same,protein contents,[1]; [6],3.55%±0.07
same,somatic cell scores,[1]; [6],4.04±0.19
same,urea nitrogen contents,[1]; [6],14.09 ± 0.59 mg/dL
same,dry matter contents,[1]; [7],14.13%±0.24
same,fat contents,[1]; [7],5.27%±0.21
same,lactose contents,[1]; [7],4.91%±0.06
same,milk production,[1]; [7],35.19 ± 2.67 kg/day
same,protein contents,[1]; [7],3.38%±0.07
same,somatic cell scores,[1]; [7],5.19±0.27
same,urea nitrogen contents,[1]; [7],15.79 ± 0.94 mg/dL
same,dry matter contents,[1]; [8],13.48%±0.32
same,fat contents,[1]; [8],4.66%±0.37
same,lactose contents,[1]; [8],4.93%±0.06
same,milk production,[1]; [8],30.34 ± 2.08 kg/day
same,protein contents,[1]; [8],3.32%±0.07
same,somatic cell scores,[1]; [8],5.03±0.29
same,urea nitrogen contents,[1]; [8],15.11 ± 1.34 mg/dL
same,dry matter contents,"[1]; autumn, after injection",14.10%±0.14
same,fat contents,"[1]; autumn, after injection",4.68%±0.13
same,lactose contents,"[1]; autumn, after injection",5.07%±0.04
same,milk production,"[1]; autumn, after injection",32.07 ± 1.05 kg/day
same,protein contents,"[1]; autumn, after injection",3.64%±0.05
same,urea nitrogen contents,"[1]; autumn, after injection",11.72 ± 0.36 mg/dL
same,somatic cell scores,"[1]; autumn, after injection (second value of before VS after)",4.55±0.16
same,dry matter contents,"[1]; end-lactation, after injection",13.47%±0.13
same,fat contents,"[1]; end-lactation, after injection",4.18%±0.12
same,milk production,"[1]; end-lactation, after injection",31.25 ± 1.29 kg/day
same,protein contents,"[1]; end-lactation, after injection",3.40%±0.04
same,somatic cell scores,"[1]; end-lactation, after injection",1.99±0.15
same,urea nitrogen contents,"[1]; end-lactation, after injection",12.04 ± 0.38 mg/dL
same,dry matter contents,"[1]; mid-lactation, after injection",13.56%±0.14
same,fat contents,"[1]; mid-lactation, after injection",4.22%±0.11
same,lactose contents,"[1]; mid-lactation, after injection",5.19%±0.02
same,milk production,"[1]; mid-lactation, after injection",39.08 ± 1.79 kg/day
same,protein contents,"[1]; mid-lactation, after injection",3.45%±0.05
same,somatic cell scores,"[1]; mid-lactation, after injection",2.00±0.17
same,urea nitrogen contents,"[1]; mid-lactation, after injection",12.11 ± 0.54 mg/dL
same,dry matter contents,[1]; [9],13.17%±0.29
same,fat contents,[1]; [9],3.87%±0.26
same,milk production,[1]; [9],38.80 ± 2.06 kg/day
same,protein contents,[1]; [9],3.35%±0.06
same,somatic cell scores,[1]; [9],2.04±0.24
same,urea nitrogen contents,[1]; [9],11.12 ± 0.64 mg/dL
same,dry matter contents,"[1]; spring, after injection",13.92%±0.15
same,fat contents,"[1]; spring, after injection",4.78%±0.14
same,lactose contents,"[1]; spring, after injection",4.94%±0.02
same,milk production,"[1]; spring, after injection",32.11 ± 1.15 kg/day
same,protein contents,"[1]; spring, after injection",3.49%±0.04
same,urea nitrogen contents,"[1]; spring, after injection",14.35 ± 0.45 mg/dL
same,somatic cell scores,"[1]; spring, after injection (second value of before VS after), 2 mL/day s.c., 4 days, milk 15 days after",4.89±0.15
same,dry matter contents,"[1]; summer, after injection",13.42%±0.13
same,fat contents,"[1]; summer, after injection",4.20%±0.12
same,lactose contents,"[1]; summer, after injection",5.06%±0.02
same,milk production,"[1]; summer, after injection",32.69 ± 1.00 kg/day
same,protein contents,"[1]; summer, after injection",3.45%±0.04
same,urea nitrogen contents,"[1]; summer, after injection",14.19 ± 0.50 mg/dL
same,somatic cell scores,"[1]; summer, after injection (second value of before VS after)",4.09±0.20
same,somatic cell score reduced by,"[1]; whole year, n=328, p<0.01",63.54%
same,fat content of milk reduced by,"[1]; whole year, n=328, p<0.05",11.31%
same,lactose content increased to,"[1]; whole year, n=328, p<0.05",4.74%
same,protein content of milk increased by,"[1]; whole year, n=328, p<0.05",3.79%
same,urea nitrogen content of milk reduced by,"[1]; whole year, n=328, p<0.05",11.08%
same,dry matter contents,"[1]; winter, after injection",13.65%±0.12
same,fat contents,"[1]; winter, after injection",4.75%±0.11
same,lactose contents,"[1]; winter, after injection",4.84%±0.04
same,milk production,"[1]; winter, after injection",31.82 ± 1.17 kg/day
same,protein contents,"[1]; winter, after injection",3.43%±0.05
same,urea nitrogen contents,"[1]; winter, after injection",15.94 ± 0.51 mg/dL
same,somatic cell scores,"[1]; winter, after injection (second value of before VS after)",4.34±0.17
same,concentration of alanine aminotransferase,[2],increase
same,concentration of albumin,[2],increase
same,concentration of cortisol,[2],reduce
same,concentration of serum lactate dehydrogenase,[2],increase
same,number of lymphocytes,[2],reduce
same,number of neutrophils,[2],reduce
same,number of white blood cells,[2],reduce
